Results published in patent publication US20100240763A1, “Method to Determine and Biomarker for Treatment Efficacy With Ssri, Snri, and Sari Antidepressants” (priority 2006, published 2010).
Entries after “also recorded” stand apart in the source; their conditions may differ.

Legend:
[1] = test system: BDNF^Met/Met, BDNF^+/− and wild-type mice; assay: open-field test after long-term fluoxetine; assay type: in vivo; details: fluoxetine orally 18 mg/kg of body weight per day for 21 days vs vehicle
Protocol: In the open-field test, percentage of time spent in the center in the absence (H2O) or presence of fluoxetine (drug) treatment was measured. […] All results are presented as means±SEM determined from analysis of eight mice per genotype (*P<0.05, **P<0.01). […] BDNF^Met/Met were treated orally with fluoxetine (18 mg/kg of body weight per day) or vehicle for 21 days before assessment in two tests: open field and novelty-induced hypophagia.

[2] = test system: transgenic mice homozygous for the G196A polymorphism and control wild-type mice; assay: anxiety-related behaviors in conflict/stress tests (open field, elevated plus maze, novelty induced hypophagia) after chronic fluoxetine; assay type: in vivo; details: chronic administration
Protocol: Second, we determined that these mice have increased anxiety-related behaviors as assessed by 3 conflict/stress tests (open field, elevated plus maze, novelty induced hypophagia). These tests for anxiety differ from those used in human studies in that the animals' anxiety-related behaviors are assessed after placement in a stressful environment.

## CNCCC(Oc1ccc(C(F)(F)F)cc1)c1ccccc1 (stereo not drawn) [fluoxetine]
[1]; BDNF^Met/Met mice
  entries into the center: blunted response
[1]; BDNF^Met/Met mice, 18 mg/kg/day
  time spent in the center: blunted response; also recorded: Decreased response
[1]; wild-type mice
  entries into the center: increase in entries into the center
  time spent in the center: significant increase
[2]; control wild-type mice
  anxiety-related behaviors: could robustly diminish
[2]; transgenic mice homozygous for the G196A polymorphism
  reversal of anxiety-related behaviors: could not reverse
